We go through 3 compounds from US4994439A, “Transmembrane formulations for drug administration” (California Biotechnology Inc., priority 1989, dated 1991).

One series relates to red blood cells. In words: Red blood cell (RBC) lysis as a measure of toxicity. The series is classed as cell-based. The note with it: FIG. 3. As to the method: Consistent results were obtained when red blood cell (RBC) lysis was evaluated as a measure of toxicity and SGDHF was used as the fusidate component. […] Thus, the addition of the detergent appears to protect against the lytic effect of the fusidate.

The nature of series [1]: Critical micellar concentration by rhodamine 6G method. The series is classed as physicochemical. To be noted: for CMC expressed on a molar basis: for the mixture: total surfactant; for CMC (as percent w/v): rhodamine 6G method. As to the method:
The CMC is not a single value, but a range of concentrations. Because the range is relatively narrow, a single concentration within this transition zone is defined as the CMC. The CMC for each individual molecule and for each mixture can be determined experimentally in variety of ways; that illustrated below is the rhodamine 6G method of Carey, M.C., et al J Colloid Interface Sci (1969) 31:382-396. In this method, a low concentration of rhodamine 6G is added as a probe in a series of dispersions or solutions of the material to be tested. Where the solute concentration is below the CMC the probe molecule has a lambdamax at 523 nm; above the CMC, the probe binds to the micelle, which causes the lambdamax to increase to approximately 532 nm. By plotting the wavelength of the maximum absorption of the rhodamine 6G probe as a function of concentration of test materials, two lines of differing slopes are obtained which intersect at the CMC. The value of the intersection is then taken as the value of the CMC for the particular dispersion.
When this procedure is conducted for solutions of STDHF, Solulan C-24, or a 1:1 mixture of these materials, the CMC values (as percent w/v) obtained are 0.14% for STDHF; 0.028% for Solulan C-24; and 0.012% for the mixture of the two--i.e., 0.006% STDHF plus 0.006% Solulan C-24. Thus, for the mixture of STDHF and Solulan C-24, the CMC for the mixture is lower than that for either component alone. These values establish minimum concentration levels needed for the invention composition, and also establish that the two components form mixed micelles. If there were two separate populations of micelles, the CMC as measured by the above-described method would be equal to that of Solulan C-24. The existence of mixed micelles can be verified with other data as described below.

Series [2] is described as follows: Quasi-elastic light-scattering of micelles. The series is classed as physicochemical. The text has this: Solulan C-24 forms micelles with a radius of 75 angstroms; STDHF forms micelles with a radius of 17 angstroms, and the mixture (1:1 w/w) forms micelles with a radius of 40 angstroms.
Series [3] in a line: Transport of insulin across rat nasal tissue (plasma insulin, delivery via the nares). The series is classed as in vivo. To be noted: 5IU/kg insulin intranasal, FIG. 5. As to the method: Efficacy in transport of insulin and of human growth hormone across rat nasal tissue was evaluated. Male Sprague-Dawley rats (Simonsen, Gilroy, CA, 240-300 gm) were anesthetized by subcutaneous injection of Acepromazine (3 mg/kg) followed 10 minutes later by intraperitoneal injections of inactin (100 mg/kg) for experiments shown in FIGS. 4-6 or by intraperitoneal (IP) injection of sodium pentobarbital (65 mg/kg), with additional doses given intravenously as necessary for experiments shown in FIGS. 7-8. A trachea tube was inserted to assist breathing.
In FIGS. 4-6, insulin or hGH was delivered directly via the nares; no esophageal cannula was inserted; the test solution (50 ul) was delivered 1 cm into the nasal cavity using PE 10 tubing attached to a Hamilton syringe.
In all cases, blood samples (0.5 ml) were drawn from a catheter in the right jugular vein and diluted with heparinized saline. Plasma (300-400 ul) was separated and stored at 4° C. for less than 48 hours prior to analysis of growth hormone using an immunoradiometric assay (Tandem R, Hybritech, Inc, San Diego, Calif.) or of insulin using a radioimmunoassay (Micromedic, ICN Micromedic Systems, Horsham, Pa.). […] Estimations of area under the curve (AUC) of plots of plasma insulin or hGH concentration versus time were calculated using the trapezoidal rule.

Consider “sodium glyco-24,25-dihydrofusidate [SGDHF]”, for which, in the series with red blood cells (0.3% concentration), the RBC lysis is 100%.
For the compound “polyoxyethylene-24-cholesterol ether [Solulan C-24]”, in series [1], the “CMC expressed on a molar basis” value was determined as 0.19 mM and the “CMC (as percent w/v)” value was found to be 0.028%. Besides, the micelle radius in series [2] is 75 angstroms. Besides, the RBC lysis result with red blood cells (concentration range of 0-0.3%) was “low values of RBC lysis”. In addition, the “time course of plasma insulin level” value in series [3] is recorded as “lower levels”.
In the case of `CC(=O)O[C@H]1C[C@@]2(C)[C@@H](C[C@@H](O)[C@H]3[C@@]4(C)CC[C@@H](O)[C@@H](C)[C@@H]4CC[C@@]32C)/C1=C(\CCCC(C)C)C(=O)NCCS(=O)(=O)[O-].[Na+]` [STDHF, sodium tauro-24,25-dihydrofusidate], in series [1], the “CMC expressed on a molar basis” value came to 2.0 mM and the “CMC (as percent w/v)” value was 0.14%. Further, in series [2], the micelle radius is 17 angstroms. Also, the “time course of plasma insulin level” value in series [3] is on record as “lower levels”.
